# Measured values reported in patent publication US8871899B2, “Control of viral-host membrane fusion with hydrogen bond surrogate-based artificial helices” (priority 2007, dated 2014).
# Where a SMILES comes first, the peptide text is derived from it. Where no end group is shown, it is not given here. The star is where a group is joined. 4‑pentenoyl = C=CCCC(=O)*
# Columns and labels:
# [1] = tested on: CHO[HIVe] (clone 7d2) cells expressing HXB2 envelope and tat cocultured with U373-MAGI cells; type: cell-based, HIV-1
# Experimental: Cell-cell fusion (i.e., syncytium formation) was assayed by coculturing CHO[HIVe] (clone 7d2) cells expressing HXB2 envelope and tat with U373-MAGI cells (M. Emerman and A. Geballe, National Institutes of Health AIDS Research and Reference Reagent Program) in the presence of different concentrations of peptides 1-10. Cell fusion allows the expression of nuclear β-galactosidase from the U373-MAGI indicator cell line and can be quantitated by monitoring β-galactosidase activity. After an overnight incubation at 37° C. after coculture, β-galactosidase enzymatic activity was measured with the Mammalian β-galactosidase Chemiluminescent Assay Kit (Gal-Screen from Applied Biosystems). The peptide inhibitor concentrations at which activities were reduced by 50% (IC50) relative to control samples lacking peptide inhibitor were calculated by fitting data to the variable-slope-sigmoid equation using the Prism program.
# Cell-cell fusion (i.e., syncytium formation) was assayed by co-culturing CHO[HIVe] […] Cell fusion allows the expression of nuclear β-galactosidase from the U373-MAGI indicator cell line and can be quantitated by monitoring β-galactosidase activity.
# [2] = target: IZN17 (stable model of the gp41 N-terminal three strand coiled-coil); test: Fluorescence polarization-based competitive binding assay (displacement of fluorescein-labeled peptide 12 from IZN17); parameters: species or system HIV-1; details: for Binding to IZN17, result in words: fluorescence polarization competition with probe 12
# [3] = Circular dichroism spectroscopy (helicity); type: physicochemical; details: 10% trifluoroethanol in PBS buffer
# Experimental: CD spectra were recorded on an AVIV 202SF CD spectrometer equipped with a temperature controller using 1 mm length cells and a scan speed of 5 nm/min. The spectra were averaged over 10 scans with the baseline subtracted from analogous conditions as that for the samples. The samples were prepared in 0.1× phosphate buffered saline (13.7 mM NaCl, 1 mM phosphate, 0.27 mM KCl, pH 7.4), containing 10% trifluoroethanol, with the final peptide concentration of 50-100 μM. The concentrations of unfolded peptides were determined by the UV absorption of the tyrosine residue at 276 nm in 6.0 M guanidinium hydrochloride aqueous solution. The helix content of each peptide was determined from the mean residue CD at 222 nm, [θ]222 (deg cm^2 dmol^−1) corrected for the number of amino acids. Percent helicity was calculated from the ratio [θ]222/[θ]max, where [θ]max=(−44000+250T)(1−k/n), with k=4.0 and n=number of residues. For details on θmax calculations for HBS helices, see Wang et al., “Evaluation of Biologically Relevant Short α-Helices Stabilized by a Main-chain Hydrogen-bond Surrogate,” J. Am. Chem. Soc. 128:9248-56 (2006), which is hereby incorporated by reference in its entirety.
# It was conjectured that stabilization of this peptide in helical conformation with the HBS approach may increase its helicity and affinity for IZN17. […]
# [4] = tested on: CHO[HIVe] (clone 7d2) cells expressing HXB2 envelope and tat cocultured with U373-MAGI cells; details: literature report; cited from earlier work
# [5] = target: IZN17 (stable model of the gp41 N-terminal three strand coiled-coil); test: Saturation binding of fluorescein-labeled peptide 12 with IZN17 (fluorescence polarization); parameters: species or system HIV-1; details: saturation binding curve, PBS buffer at 25° C.
# Experimental: FIG. 14 is a graph showing the saturation binding curve of fluorescein-labeled peptide 12 with IZN17 in PBS buffer at 25° C.
# The relative affinity of peptides 1-10 for IZN17 (i.e., peptide 11) was determined using a fluorescence polarization-based competitive binding assay (Eckert & Kim, “Design of Potent Inhibitors of HIV-1 Entry from the gp41 N-Peptide Region,” Proc. Nat'l Acad. Sci. U.S.A. 98:11187-92 (2001); Stephens et al., “Inhibiting HIV Fusion with a β-Peptide Foldamer,” J. Am. Chem. Soc. 127:13126-7 (2005), which are hereby incorporated by reference in their entirety) with fluorescein-labeled peptide 12, shown in FIG. 13. FIG. 14 is a graph showing the saturation binding curve of fluorescein-labeled peptide 12 with IZN17 in PBS buffer at 25° C.
# A previously described fluorescence polarization assay was utilized to determine the in vitro binding affinity of unconstrained peptides and HBS helices for a stable model of the gp41 N-terminal three strand coiled-coil, IZN17, which contains the binding site for residues W628, W631, and 1635 (see Example 3, supra) (Eckert & Kim, “Design of Potent Inhibitors of HIV-1 Entry from the gp41 N-Peptide Region,” Proc. Nat'l Acad. Sci. U.S.A. 98:11187-92 (2001), which is hereby incorporated by reference in its entirety). […]
compound,measurement,setting,value
"CC[C@H](C)[C@H](NC(=O)[C@H](CCCCN)NC(=O)[C@H](CCCCN)NC(=O)[C@@H](NC(=O)[C@H](Cc1ccc(O)cc1)NC(=O)[C@H](CCC(=O)O)NC(=O)[C@H](CCC(=O)O)NC(=O)[C@@H](NC(=O)[C@H](CCCCN)NC(=O)[C@H](CCCCN)NC(=O)[C@H](CC(=O)O)NC(=O)[C@H](Cc1c[nH]c2ccccc12)NC(=O)[C@H](CCC(=O)O)NC(=O)[C@H](CCC(=O)O)NC(=O)[C@H](Cc1c[nH]c2ccccc12)N1CC=CCCC(=O)N[C@@H](CCSC)C(=O)N[C@@H]([C@@H](C)O)C1=O)[C@@H](C)CC)[C@@H](C)O)C(N)=O [compound 9, XMTWEEWDKKIEEYTKKI]",EC50,"[1]; overnight coculture at 37° C., β-galactosidase readout, read-out: EC50, inhibition of gp41-mediated cell fusion",43 µM
"CC[C@H](C)[C@H](NC(=O)[C@H](CCC(=O)O)NC(=O)[C@H](CCCNC(=N)N)NC(=O)[C@H](CC(=O)O)NC(=O)[C@H](Cc1c[nH]c2ccccc12)NC(=O)[C@H](CCC(=O)O)NC(=O)[C@H](CCSC)NC(=O)[C@H](Cc1c[nH]c2ccccc12)NC(=O)[C@@H](NC(=O)[C@H](CCSC)NC(C)=O)[C@@H](C)O)C(=O)N[C@@H](CC(N)=O)C(=O)N[C@@H](CC(N)=O)C(=O)N[C@@H](Cc1ccc(O)cc1)C(=O)N[C@H](C(N)=O)[C@@H](C)O [peptide 1, AcMTWMEWDREINNYT-NH2, reference compound] (Ac-MTWMEWDREINNYT-NH2)",Kd,"[2]; PBS pH 7.4, 0.1% pluronic F-68, 25° C., 25 μM IZN17, 15 nM probe 12, values much lower than probe Kd are upper limits, read-out: Kd, binding affinity for IZN17 (competition assay)",37 µM
same,"Helicity by CD, result in words",[3],unstructured or very weakly helical
same,Activity in cell-cell fusion assays as previously shown (Sia et al.),[4],ineffective in cell-cell fusion assays
"CC[C@H](C)[C@H](NC(=O)[C@H](CCCCN)NC(=O)[C@H](CCCCN)NC(=O)[C@@H](NC(=O)[C@H](Cc1ccc(O)cc1)NC(=O)[C@H](CCC(=O)O)NC(=O)[C@H](CCC(=O)O)NC(=O)[C@@H](NC(=O)[C@H](CCCCN)NC(=O)[C@H](CCCCN)NC(=O)[C@H](CC(=O)O)NC(=O)[C@H](Cc1c[nH]c2ccccc12)NC(=O)[C@H](CCC(=O)O)NC(=O)[C@H](CCC(=O)O)NC(=O)[C@H](Cc1c[nH]c2ccccc12)NC(=O)[C@@H](NC(=O)[C@H](CCSC)NC(C)=O)[C@@H](C)O)[C@@H](C)CC)[C@@H](C)O)C(N)=O [peptide 10, AcMTWEEWDKKIEEYTKKI—NH2] (Ac-MTWEEWDKKIEEYTKKI-NH2)","Binding to IZN17, result in words",[2],bound IZN17 with a similar affinity as 9
same,"Cell fusion inhibition, result in words",[1]; concentrations up to 200 μM,remained ineffective in the cell culture assay
Suc-MTWMEWDERINNYTC^Flu-NH2 [peptide 12],Kd,[5],24 µM
"XMTWMEWDREINNYT ({4‑pentenoyl}-MTWMEWDREINNYT; staple (positions not given here); also: hydrogen bond surrogate, N-allyl residue position not given here) [compound 2]","Binding to IZN17, result in words",[2],did not bind the target protein with higher affinity
